{"source": "patent US20100008965A1", "about": "“BIOCOMPATIBLE MEDICAL PRODUCTS HAVING ENHANCED ANTI-THROMBOGENIC PROPERTIES” (priority 2008, published 2010)", "key": {"HCAEC [1]": {"test_system": "HCAEC", "assay": "HCAEC spreading on coated glass slides, static", "assay_type": "cell-based, human", "conditions": "5 μg/cm^2 coating, two hours, p<0.0001", "method": "(§1) 22×25×1 mm glass slides (Electron Microscopy Sciences, Hatfield, Pa.) were washed sequentially in 100% acetone, ethanol and HCl (2:1), and deionized and Milli-Q H2O, followed by autoclave sterilization. Slides were coated with one of the following PBS-solubilized extracellular matrix proteins at 5 μg/cm^2: (a) human type I collagen (Sigma), (b) human plasma fibronectin (Chemicon), or (c) CS-1 peptide (American Peptide Company). All coated slides were dried overnight at room temperature, rinsed with PBS, and blocked with a 0.01% (w/v) heat-inactivated BSA-solution at room temperature for one hour. HCAEC or HUVEC were seeded onto the slides in basal medium at 1×10^4 cells/cm^2 and permitted to attach and spread for two hours at 37° C. Cells were fixed with 4% (w/v) paraformaldehyde and co-stained for fluorescence microscopic analysis using Texas Red®-X phalloidin (Molecular Probes, Eugene, Oreg.) and DAPI (EMB Chemicals, Inc., San Diego, Calif.). Fluorescence micrographs were captured through a 10× objective on a Nikon Diaphot 200 inverted epifluorescence microscope (Nikon, Inc., Melville, N.Y.) using an Olympus DP70 digital camera (Olympus America, Inc., Melville, N.Y.). Image Tool software package version 3.0 (University of Texas Health Science Center, San Antonio, Tex.) was used to quantify endothelial cell surface area."}, "human platelets": {"test_system": "human platelets", "assay": "DiOC6-labeled platelet adhesion imaging under shear flow", "assay_type": "cell-based", "conditions": "16.5 dyne/cm^2, one hour, platelets activated prior to flow", "method": "To visualize shear stress-mediated platelet adhesion to the immobilized ECM proteins, non-radiolabeled non-activated or thrombin-activated human platelets were prepared as described above, but were first incubated for ten minutes at room temperature with a 10 μM DiOC6 (dihexaoxacarbocyanine iodide) (Sigma) solution prior to being subjected to flow for one hour at a shear stress τ=16.5 dyne/cm^2. Post-flow, all slides were rinsed twice with PBS and fixed with 4% (w/v) paraformaldehyde. Platelet adhesion was visualized on a Nikon Diaphot 200 inverted epifluorescence microscope (Nikon) at 488 nm using a 40× objective. Images were captured using an Olympus DP70 digital camera (Olympus America, Inc.) and analyzed using the Adobe® Photoshop® software package version 6.0 (Adobe Systems Incorporated, San Jose, Calif.)."}, "HCAEC [2]": {"test_system": "HCAEC", "assay": "HCAEC retention under unidirectional fluid flow", "assay_type": "cell-based, human", "conditions": "15 dyne/cm^2, thirty minutes", "method": "In addition to the above, 75×38×1 mm glass microscope slides (Fisher Scientific Research, Pittsburgh, Pa.) were sterilized and coated overnight with human plasma fibronectin or CS-1 peptide at 5 μg/cm^2, or with PBS only. Slides were incubated for one hour at room temperature with a 0.01% (w/v) sterile-filtered BSA solution. HCAEC or HUVEC were seeded in basal medium on slides at 1.85×10^4 cells/cm^2 and permitted to adhere for eight hours under static conditions at 37° C. Fluid flow was performed using parallel plate flow chambers connected to fluid flow loops, as described in Pavalko et al., Fluid shear stress inhibits TNF-alpha-induced apoptosis in osteoblasts: a role for fluid shear stress-induced activation of PI3-kinase and inhibition of caspase-3. J Cell Phys 194, 194, 2002. Briefly, endothelial cell-seeded slides were secured within flow chambers and connected to fluid flow loops. All flows were performed in a 37° C. environment with serum-free culture medium that was continually bathed in a 5% CO2 atmosphere. […] Fluorescence micrographs were captured as described above. […] Nuclei were counted from five equally distributed visual fields per slide and pooled together for each substrate condition. Data was calculated as percent (%) cell retention, where % retention=[(average nuclei count)flow÷(average nuclei count)static]×100."}, "HUVEC": {"test_system": "HUVEC", "assay": "HUVEC spreading on coated glass slides, static", "assay_type": "cell-based, human", "conditions": "5 μg/cm^2 coating, two hours, p<0.01", "method": "as §1"}}, "data": [{"substance": "CS-1: full-length 25 amino acid polypeptide, first 25 amino acid sequence of the fibronectin type IIICS domain (DELPQLVTLPHPNLHGPEILDVPST; Homo sapien)", "values": [{"measurement": "HCAEC spread area relative to the non-ECM-coated control substrate", "setting": "HCAEC [1]", "value": "statistically significant increase"}, {"measurement": "thrombin-activated platelet adhesion and thrombus formation (DiOC6 images)", "setting": "human platelets", "value": "higher binding to the CS-1 substratum relative to their non-activated counterparts"}, {"measurement": "HCAEC percent retention versus non-ECM-coated control substrate", "setting": "HCAEC [2]; p<0.05", "value": "statistically greater"}, {"measurement": "HCAEC percent retention versus fibronectin substrate", "setting": "HCAEC [2]; p=0.9", "value": "not statistically different"}, {"measurement": "HUVEC spread area relative to the non-ECM-coated control substrate", "setting": "HUVEC", "value": "statistically significant increase"}]}]}
